In patent publication US5283247A, “Anticonvulsant substituted quinazolones” (Research Corporation Technologies, Inc., priority 1992, dated 1994):

Columns and labels:
[1] = 24 hour mortality / toxicity in mice after test compound and pentylenetetrazol; format: in vivo, male mice (Swiss-Webster); conditions: for 24 Hour Mortality: 100 mg/kg ip, 24 hours after pentylenetetrazol injection, groups of 10; for toxicity at the effective dosage: Example 6, 100 mg/kg ip
Procedure: (§1) The mice were divided in groups of 10, keeping the group weights equal as far as possible. The quinazolones shown in Table 2 as well as methaqualone were injected ip (100 mg/kg) in a 5% aqueous suspension of gum acacia to one group of 10 animals. One hour after the administration of quinazolones, the mice were injected with pentylenetetrazol (90 mg/kg) sc under the loose skin of the back. […] The mice were then observed for the following 60 minutes for the occurrence of seizures. One episode of clonic spasm which persisted for a minimum period of 5 seconds was considered a threshold convulsion. Transient intermittent jerks or tremulousness were not taken into account. Animals devoid of even a threshold convulsion during the period of 60 minutes were considered protected. […] Mortality was recorded 24 hours after the pentylenetetrazol injection. After the injection of test compounds, behavioral observations were also made. […] 2 and compound no.

[2] = behavioral observations / gross CNS effects in mice; format: in vivo, male mice (Swiss-Webster); conditions: 100 mg/kg ip, after injection of test compounds
Procedure: The mice were divided in groups of 10, keeping the group weights equal as far as possible. The quinazolones shown in Table 2 as well as methaqualone were injected ip (100 mg/kg) in a 5% aqueous suspension of gum acacia to one group of 10 animals. One hour after the administration of quinazolones, the mice were injected with pentylenetetrazol (90 mg/kg) sc under the loose skin of the back. […] The mice were then observed for the following 60 minutes for the occurrence of seizures. One episode of clonic spasm which persisted for a minimum period of 5 seconds was considered a threshold convulsion. Transient intermittent jerks or tremulousness were not taken into account. Animals devoid of even a threshold convulsion during the period of 60 minutes were considered protected. […] Mortality was recorded 24 hours after the pentylenetetrazol injection. After the injection of test compounds, behavioral observations were also made.

[3] = therapeutic index compared with methaqualone; conditions: conclusion from Examples 6, 7 and 8
[4] = pentylenetetrazol (90 mg/kg sc) induced seizures in mice, percent protection; format: in vivo, male mice (Swiss-Webster); conditions: for Percent Protection: 100 mg/kg ip, pentylenetetrazol 90 mg/kg sc one hour later, observed 60 minutes (Table 3); for Percent Protection / protection against pentylenetetrazol seizures: mice; for protection against pentylenetetrazol seizures: Example 6, 100 mg/kg ip; for Percent Protection against pentylenetetrazol (dose response): pentylenetetrazol 90 mg/kg s.c. given 1 hour after; for Percent Protection against pentylenetetrazol (time response): pentylenetetrazol 90 mg/kg s.c.
Procedure: as §1
(§2) Dose response and time response studies were performed with compound no. 2 by injecting it into a group of 10 male Swiss-Webster mice. In addition, a group of 10 male ICR mice were injected with different dosages of compound no. 2 to determine the approximate LD50.

[5] = maximal electric shock seizures (MES) in rats; format: in vivo; conditions: 50 mg/kg orally
Procedure: (§3) Compound No. 2 was also tested in rats. Four rats were treated with compound no. 2 at a dosage of 50 mg/kg orally. Anticonvulsant effects of compound no. […] The toxic symptoms were also observed. It can be seen from this table that compound no.
(§4) Maximal electroshock seizures were elicited with a 60 cycle alternating current of 50mA intensity (5-7 times that necessary to elicit minimal electroshock seizures) delivered for 0.2 seconds via corneal electrodes. A drop of 0.9% saline was instilled in the eye prior to application of the electrodes in order to […]. Abolition of the hind limb tonic extension component of the seizure was defined as protection.

[6] = Maximal Electric Shock (MES) seizure in mice; format: in vivo; conditions: 30 mg/kg ip in mice
Procedure: In addition, compound no. 2 was also tested against Maximal Electric Shock (MES) seizure. Compound no.
as §4

[7] = pentylenetetrazol-induced seizure in rats; format: in vivo; conditions: 50 mg/kg orally
Procedure: as §3

approximate LD50 in mice = conditions: mouse, in vivo, ip; male ICR mice, observed 24 hours
Procedure: as §2
Approximate LD50 was determined in male ICR mice.

toxic symptoms in rats = format: in vivo; conditions: 50 mg/kg orally
Procedure: as §3

[8] = cited from earlier work
[9] = reference 3; cited from earlier work

Cc1ccccc1-n1c(C)nc2cc(N)ccc2c1=O [Compound 14, 2-Methyl-3-o-tolyl-7-amino-4-quinazolone]
24 Hour Mortality [1]: 0
toxicity at the effective dosage [1]: did not exhibit any toxicity
Behavioral Observations [2]: none
therapeutic index versus methaqualone [3]: higher therapeutic indices than methaqualone
Percent Protection [4]: 100%
protection against pentylenetetrazol seizures [4]: 100%

Cc1cccnc1-n1c(C)nc2ccccc2c1=O [Compound 2, 2-Methyl-3-(3-methyl-2-pyridyl)-4-quinazolone]
Percent protection against MES ([5]; 0.25 Hr.): 75%
Percent protection against MES ([5]; 0.5 Hr.): 50%
Percent protection against MES ([5]; 1 Hr.): 75%
Percent protection against MES ([5]; 2 Hr.): 50%
Percent protection against MES ([5]; 4 Hr.): 25%
protection against MES ([5]; all time periods, Example 8): protected against both MES and pentylenetetrazol-induced seizure at all time periods
24 Hour Mortality [1]: 0
toxicity at the effective dosage [1]: did not exhibit any toxicity
protection against MES [6]: 100%
Percent protection against pentylenetetrazol ([7]; 0.25 Hr., three rats): 33.3%
Percent protection against pentylenetetrazol ([7]; 0.5 Hr., four rats): 75%
Percent protection against pentylenetetrazol ([7]; 1 Hr., four rats): 25%
Percent protection against pentylenetetrazol ([7]; 4 Hr., four rats): 25%
protection against pentylenetetrazol-induced seizure ([7]; all time periods, Example 8): protected against both MES and pentylenetetrazol-induced seizure at all time periods
Behavioral Observations [2]: mild sedation
LD50 at 24 h (approximate LD50 in mice): ~1000 mg/kg
Toxicity in percent rats (toxic symptoms in rats; 0.25 Hr.): 0%
Toxicity in percent rats (toxic symptoms in rats; 0.5 Hr.): 0%
Toxicity in percent rats (toxic symptoms in rats; 1 Hr.): 0%
Toxicity in percent rats (toxic symptoms in rats; 2 Hr.): 0%
Toxicity in percent rats (toxic symptoms in rats; 4 Hr.): 0%
toxic symptoms (toxic symptoms in rats; rats, all time periods, Example 8): without exhibiting any toxic symptoms
therapeutic index versus methaqualone [3]: higher therapeutic indices than methaqualone
Percent Protection against pentylenetetrazol (dose response) ([4]; 40 mg/kg i.p.): 20%
Percent Protection against pentylenetetrazol (dose response) ([4]; 60 mg/kg i.p.): 80%
Percent Protection against pentylenetetrazol (dose response) ([4]; 80 mg/kg i.p.): 90%
Percent Protection against pentylenetetrazol (dose response) ([4]; 100 mg/kg i.p.): 100%
Percent Protection [4]: 100%
Percent Protection against pentylenetetrazol (time response) ([4]; 1 hr after injection, 100 mg/kg i.p.): 100%
Percent Protection against pentylenetetrazol (time response) ([4]; 2 hr after injection, 100 mg/kg i.p.): 60%
Percent Protection against pentylenetetrazol (time response) ([4]; 3 hr after injection, 100 mg/kg i.p.): 0%
Percent Protection against pentylenetetrazol (time response) ([4]; 4 hr after injection, 100 mg/kg i.p.): 0%
protection against pentylenetetrazol seizures [4]: 100%

Cc1nc2ccccc2c(=O)n1-c1ccccc1C(F)(F)F [2-methyl-3-(2-trifluoromethylphenyl)-4-quinazolone]
sedative effect compared with methaqualone ([8]; reference 4): better sedative effect
toxicity compared with methaqualone ([8]; reference 4): lower toxicity

Cc1ccccc1-n1c(C)nc2ccccc2c1=O [Compound 1, 2-methyl-3-o-tolyl-4-quinazolone]
24 Hour Mortality [1]: 0
metabolism in the body [9]: metabolized in the body to the N^1 -oxide of the compound
Percent Protection [4]: 100%
abuse potential ([8]; in vivo): high abuse potential
